Assay results reported in patent US12187742B2 (XRAD Therapeutics, Inc., priority 2018, dated 2025).
Where a name gives a salt, the structure may show the parent alone.

Assays:
[1] = target: ATM (Homo sapiens (Human), UniProt Q13315); assay: ATM in Cell Western Assay (pKAP1 in etoposide-treated MCF-7 cells); type: cell-based
Procedure, shortened: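 After paraformaldehyde fixation and Triton X-100 permeabilization, immunostained plates were read by infrared scanning (ODYSSEY CLx). Compound was given as 10 doses, 3-fold dilutions from a 1 μM final top concentration.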

[2] = target: DNA-PK (Homo sapiens (Human), UniProt P78527); assay: DNA-PK Enzyme-Linked Immunosorbent Assay (phosphorylation of GST-p53 (1-101) peptide); type: biochemical; conditions: ELISA
Procedure, shortened: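 Inhibition measured by 450 nm absorbance after HRP/TMB detection of phospho-Ser15 on immobilized GST-p53 (1-101). The kinase reaction used 0.1 μg/mL DNA-PK and 20 μM ATP, 1 h at 25 °C. Ten 3-fold compound dilutions, top final concentration 100 nM.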

[3] = pKAP1 in etoposide-treated MCF-7 cells
[4] = MCF-7 cells, etoposide 100 μM, 1 hr, pKAP1 readout

ATM, sequence (Q13315 whole entry): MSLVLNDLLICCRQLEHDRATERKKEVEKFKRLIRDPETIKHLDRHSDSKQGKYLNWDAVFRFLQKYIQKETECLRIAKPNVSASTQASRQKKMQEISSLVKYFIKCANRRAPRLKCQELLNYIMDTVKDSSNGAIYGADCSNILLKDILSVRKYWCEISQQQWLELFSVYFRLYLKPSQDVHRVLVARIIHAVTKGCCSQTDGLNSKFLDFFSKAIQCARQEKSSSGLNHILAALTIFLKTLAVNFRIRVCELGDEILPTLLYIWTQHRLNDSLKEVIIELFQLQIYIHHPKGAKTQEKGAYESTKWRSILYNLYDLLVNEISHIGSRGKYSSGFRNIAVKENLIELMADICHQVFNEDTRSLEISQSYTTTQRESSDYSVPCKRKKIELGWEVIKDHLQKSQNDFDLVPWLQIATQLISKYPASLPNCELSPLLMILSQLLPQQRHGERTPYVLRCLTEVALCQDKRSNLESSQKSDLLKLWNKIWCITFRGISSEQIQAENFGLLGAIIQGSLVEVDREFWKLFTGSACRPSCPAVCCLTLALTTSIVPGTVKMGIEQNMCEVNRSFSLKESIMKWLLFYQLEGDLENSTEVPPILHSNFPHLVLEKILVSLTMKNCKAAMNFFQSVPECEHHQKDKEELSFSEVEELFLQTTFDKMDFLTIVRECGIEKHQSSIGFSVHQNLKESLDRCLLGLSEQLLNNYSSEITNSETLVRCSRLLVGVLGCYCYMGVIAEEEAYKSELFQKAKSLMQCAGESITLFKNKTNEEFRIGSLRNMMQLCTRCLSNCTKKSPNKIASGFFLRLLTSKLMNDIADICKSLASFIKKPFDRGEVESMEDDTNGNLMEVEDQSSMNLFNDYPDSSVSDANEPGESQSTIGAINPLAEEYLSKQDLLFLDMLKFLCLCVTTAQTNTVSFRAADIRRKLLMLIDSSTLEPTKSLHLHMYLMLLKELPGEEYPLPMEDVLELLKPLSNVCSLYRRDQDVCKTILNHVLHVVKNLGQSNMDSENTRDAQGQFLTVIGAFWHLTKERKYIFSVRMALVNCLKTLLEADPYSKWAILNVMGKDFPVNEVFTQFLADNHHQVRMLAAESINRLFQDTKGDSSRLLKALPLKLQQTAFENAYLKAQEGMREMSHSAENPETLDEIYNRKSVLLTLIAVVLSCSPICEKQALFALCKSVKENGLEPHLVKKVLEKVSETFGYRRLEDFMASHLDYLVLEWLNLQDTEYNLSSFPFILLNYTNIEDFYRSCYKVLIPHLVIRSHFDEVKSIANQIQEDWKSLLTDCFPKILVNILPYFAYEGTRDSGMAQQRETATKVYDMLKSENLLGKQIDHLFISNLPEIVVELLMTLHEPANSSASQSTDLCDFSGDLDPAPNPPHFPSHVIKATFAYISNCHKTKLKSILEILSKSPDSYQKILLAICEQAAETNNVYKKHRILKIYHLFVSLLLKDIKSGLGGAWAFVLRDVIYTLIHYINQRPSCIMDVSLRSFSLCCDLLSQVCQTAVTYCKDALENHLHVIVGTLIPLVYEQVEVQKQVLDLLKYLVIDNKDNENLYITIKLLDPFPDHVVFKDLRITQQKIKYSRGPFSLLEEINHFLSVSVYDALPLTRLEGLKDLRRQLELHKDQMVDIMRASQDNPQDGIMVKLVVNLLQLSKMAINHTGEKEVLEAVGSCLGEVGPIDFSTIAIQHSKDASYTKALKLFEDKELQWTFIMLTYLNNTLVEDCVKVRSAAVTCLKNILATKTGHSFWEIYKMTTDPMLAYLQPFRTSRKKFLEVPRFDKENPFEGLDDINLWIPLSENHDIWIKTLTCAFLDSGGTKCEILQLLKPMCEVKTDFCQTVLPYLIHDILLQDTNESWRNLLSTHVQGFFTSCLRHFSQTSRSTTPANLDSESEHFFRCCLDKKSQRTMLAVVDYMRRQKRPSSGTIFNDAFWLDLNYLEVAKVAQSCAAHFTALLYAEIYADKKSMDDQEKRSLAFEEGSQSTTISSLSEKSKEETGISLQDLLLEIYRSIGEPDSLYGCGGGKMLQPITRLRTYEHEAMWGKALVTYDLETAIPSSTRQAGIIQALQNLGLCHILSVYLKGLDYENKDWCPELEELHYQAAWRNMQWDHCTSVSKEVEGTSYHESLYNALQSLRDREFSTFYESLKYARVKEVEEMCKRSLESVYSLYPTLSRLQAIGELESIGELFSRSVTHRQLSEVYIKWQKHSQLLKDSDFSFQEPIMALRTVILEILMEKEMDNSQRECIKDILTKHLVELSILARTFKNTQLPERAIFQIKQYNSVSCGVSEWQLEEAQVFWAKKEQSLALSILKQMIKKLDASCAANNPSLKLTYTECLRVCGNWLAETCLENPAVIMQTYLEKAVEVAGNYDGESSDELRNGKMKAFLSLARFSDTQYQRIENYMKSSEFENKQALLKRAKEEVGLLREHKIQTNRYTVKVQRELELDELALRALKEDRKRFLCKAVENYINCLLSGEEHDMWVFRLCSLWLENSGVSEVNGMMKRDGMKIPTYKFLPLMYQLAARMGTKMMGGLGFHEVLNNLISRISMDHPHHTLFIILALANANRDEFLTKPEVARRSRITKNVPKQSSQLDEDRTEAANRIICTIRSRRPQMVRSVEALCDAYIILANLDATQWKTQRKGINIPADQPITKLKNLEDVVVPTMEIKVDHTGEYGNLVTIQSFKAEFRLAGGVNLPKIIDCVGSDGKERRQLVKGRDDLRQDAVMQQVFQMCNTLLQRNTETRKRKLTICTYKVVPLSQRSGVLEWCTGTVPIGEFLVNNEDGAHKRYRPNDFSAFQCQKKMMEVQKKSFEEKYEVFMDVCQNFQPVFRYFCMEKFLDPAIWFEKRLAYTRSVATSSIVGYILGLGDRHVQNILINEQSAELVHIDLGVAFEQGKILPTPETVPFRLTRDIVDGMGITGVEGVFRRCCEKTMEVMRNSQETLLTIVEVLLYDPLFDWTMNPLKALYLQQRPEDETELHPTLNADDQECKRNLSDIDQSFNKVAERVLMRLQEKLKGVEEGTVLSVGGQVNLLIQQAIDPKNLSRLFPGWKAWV

| IC50 [1, 3] | IC50 ([2]; 20 μM ATP) | IC50 [1, 4] | IC50 ([2]; ATP 20 μM) | SMILES |
| --- | --- | --- | --- | --- |
| 1 to 100 nM | 1 to 100 nM | – | – | CC(C)NCCOc1ncc(-c2cc3c4c(cnc3cc2F)N(C)C(=O)C42CN(C(C)C)C2)cc1NS(=O)(=O)C(C)C [Example 485, N-(5-(7′-Fluoro-1-isopropyl-3′-methyl-2′-oxo-2′,3′-dihydrospiro[azetidine-3,1′-pyrrolo[2,3-c]quinolin]-8′-yl)-2-(2-(isopropylamino)ethoxy)pyridin-3-yl)propane-2-sulfonamide] |
| – | – | 0.5 to 1 nM | 0.5 to 1 nM | CN(C)CCCOc1ncc(-c2ccc3ncc4c(c3c2)C2(CC2)C(=O)N4C)cc1NS(=O)(=O)c1ccccc1OC(F)(F)F [Example 116] |
| 1 to 100 nM | < 0.5 nM | – | – | CC(C)NCCOc1ncc(-c2cc3c4c(cnc3cc2F)N(C)C(=O)C42CN(c3cccc(F)c3)C2)cc1NS(C)(=O)=O [Example 539, N-(5-(7′-Fluoro-1-(3-fluorophenyl)-3′-methyl-2′-oxo-2′,3′-dihydrospiro[azetidine-3,1′-pyrrolo[2,3-c]quinolin]-8′-yl)-2-(2-(isopropylamino)ethoxy)pyridin-3-yl)methanesulfonamide] |
| – | – | 1 to 100 nM | 1 to 100 nM | CN1C(=O)C2(CCC2)c2c1cnc1ccc(-c3cnc(OCCCN4CCOCC4)c(NS(C)(=O)=O)c3)cc21 [Example 305, N-(5-(3′-Methyl-2′-oxo-2′,3′-dihydrospiro[cyclobutane-1,1′-pyrrolo[2,3-c]quinolin]-8′-yl)-2-(3-morpholinopropoxy)pyridin-3-yl)methanesulfonamide] |
| – | – | 1 to 100 nM | 0.5 to 1 nM | CN1C(=O)C2(CCC2)c2c1cnc1ccc(-c3cnc(OCCCN4CCCCC4)c(NS(=O)(=O)C4CC4)c3)cc21 [Example 197, N-(5-(3-Methyl-2′-oxo-2′,3′-dihydrospiro[cyclobulane-1,1′-pyrrolo[2,3-c]quinolin]-8′-yl)-2-(3-(piperidin-1-yl)propoxy)pyridin-3-yl)cyclopropanesulfonamide hydrochloride] |
| – | – | 1 to 100 nM | 0.5 to 1 nM | CCN(C)C1CN(c2ncc(-c3ccc4ncc5c(c4c3)C3(CCC3)C(=O)N5C)cc2NS(C)(=O)=O)C1 [Example 326, N-(2-(3-(Ethyl(methyl)amino)azetidin-1-yl)-5-(3′-methyl-2′-oxo-2′,3′-dihydrospiro[cyclobutane-1,1′-pyrrolo[2,3-c]quinolin]-8′-yl)pyridin-3-yl)methanesulfonamide hydrochloride] |
| – | – | 1 to 100 nM | < 0.5 nM | COc1ncc(-c2ccc3ncc4c(c3c2)C2(CC2)C(=O)N4C)cc1NS(=O)(=O)c1cccc(C(C)=O)c1 [Example 13, 3-Acetyl-N-(2-methoxy-5-(3′-methyl-2′-oxo-2′,3′-dihydrospiro [cyclopropane-1,1′-pyrrolo[2,3-c]quinolin]-8′-yl)pyridin-3-yl)benzenesulfonamide] |
| – | – | 1 to 100 nM | < 0.5 nM | CN1C(=O)C2(CCC2)c2c1cnc1ccc(-c3cnc(N4CCC(N5CCCCC5)CC4)c(NS(=O)(=O)C4CC4)c3)cc21 [Example 207, N-(2-([1,4′-Bipiperidin]-1′-yl)-5-(3′-methyl-2′-oxo-2′,3′-dihydrospiro[cyclobutane-1,1′-pyrrolo[2,3-c]quinolin]-8′-yl)pyridin-3-yl)cyclopropanesulfonamide hydrochloride] |
| – | – | 1 to 100 nM | 0.5 to 1 nM | Cc1ccc(S(=O)(=O)Nc2cc(-c3ccc4ncc5c(c4c3)C3(CCC3)C(=O)N5C)cnc2OCCCN(C)C)cc1 [Example 145, N-(2-(3-(Dimethylamino)propoxy)-5-(3′-methyl-2′-oxo-2′,3′-dihydrospiro [cyclobulane-1,1′-pyrrolo[2,3-c]quinolin]-8′-yl)pyridin-3-yl)-4-methylbenzenesulfonamide hydrochloride] |
| – | – | 1 to 100 nM | 0.5 to 1 nM | CN1C(=O)C2(CCC2)c2c1cnc1ccc(-c3cnc(OCCCN4CCCCC4)c(NS(=O)(=O)c4cscn4)c3)cc21 [Example 193, N-(5-(3′-Methyl-2′-oxo-2′,3′-dihydrospiro[cyclobutane-1,1′-pyrrolo[2,3-c]quinolin]-8′-yl)-2-(3-(piperidin-1-yl)propoxy)pyridin-3-yl)thiazole-4-sulfonamide hydrochloride] |
| 1 to 100 nM | 1 to 100 nM | – | – | CC(C)NCCOc1ncc(-c2cc3c(cc2F)ncc2c3[C@]3(C[C@H](OC(C)C)C3)C(=O)N2C)cc1NS(C)(=O)=O [Example 395, cis-N-(5-(7′-Fluoro-3-isopropoxy-3′-methyl-2′-oxo-2′,3′-dihydrospiro[cyclobutane-1,1′-pyrrolo[2,3-c]quinolin]-8′-yl)-2-(2-(isopropylamino)ethoxy)pyridin-3-yl)methanesulfonamide] |
| – | – | 1 to 100 nM | 1 to 100 nM | CN1CCC(c2ncc(-c3ccc4ncc5c(c4c3)C3(CCC3)C(=O)N5C)cc2NS(C)(=O)=O)CC1 [Example 285, N-(5-(3′-Methyl-2′-oxo-2′,3′-dihydrospiro[cyclobutane-1,1′-pyrrolo[2,3-c]quinolin]-8′-yl)-2-(1-methylpiperidin-4-yl)pyridin-3-yl)methanesulfonamide] |
| – | – | 1 to 100 nM | 0.5 to 1 nM | Cc1ncc(S(=O)(=O)Nc2cc(-c3ccc4ncc5c(c4c3)C3(CCC3)C(=O)N5C)cnc2OCCCN(C)C)s1 [Example 289, N-(2-(3-(Dimethylamino)propoxy)-5-(3′-methyl-2′-oxo-2′,3′-dihydrospiro [cyclobutane-1,1′-pyrrolo [2,3-c]quinolin]-8′-yl)pyridin-3-yl)-2-methylthiazole-5-sulfonamide] |
| – | – | 1 to 100 nM | 0.5 to 1 nM | CC(C)NCCOc1ncc(-c2ccc3ncc4c(c3c2)C2(CCC2)C(=O)N4C)cc1NS(C)(=O)=O [Example 281, N-(2-(2-(Isopropylamino)ethoxy)-5-(3′-methyl-2′-oxo-2′,3′-dihydrospiro [cyclobutane-1,1′-pyrrolo[2,3-c]quinolin]-8′-yl)pyridin-3-yl)methanesulfonamide] |
| – | – | 1 to 100 nM | 1 to 100 nM | CN1C(=O)C2(CCC2)c2c1cnc1ccc(-c3cnc(OCCCN4CCCCC4)c(NS(=O)(=O)c4ccccc4)c3)cc21 [Example 132, N-(5-(3′-Methyl-2′-oxo-2′,3′-dihydrospiro[cyclobulane-1,1′-pyrrolo[2,3-c]quinolin]-8′-yl)-2-(3-(piperidin-1-yl)propoxy)pyridin-3-yl)benzenesulfonamide hydrochloride] |
| – | – | 1 to 100 nM | 1 to 100 nM | CN(C)CCCOc1ncc(-c2ccc3ncc4c(c3c2)C2(CC2)C(=O)N4C)cc1NS(=O)(=O)Cc1ccccc1 [Example 103, N-(2-(3-(Dimethylamino)propoxy)-5-(3′-methyl-2′-oxo-2′,3′-dihydrospiro [cyclopropane-1,1′-pyrrolo[2,3-c]quinolin]-8′-yl)pyridin-3-yl)-1-phenylmethanesulfonamide] |
| – | – | 1 to 100 nM | < 0.5 nM | CN1C(=O)C2(CCC2)c2c1cnc1ccc(-c3cnc(OCCCN4CCCCC4)c(NS(=O)(=O)C(F)F)c3)cc21 [Example 302, 1,1-Difluoro-N-(5-(3-methyl-2′-oxo-2′,3′-dihydrospiro[cyclobutane-1,1′-pyrrolo[2,3-c]quinolin]-8-yl)-2-(3-(piperidin-1-yl)propoxy)pyridin-3-yl)methanesulfonamide] |
| 1 to 100 nM | 1 to 100 nM | – | – | CC(C)NCCOc1ncc(-c2cc3c4c(cnc3cc2F)N(C)C(=O)C42CCC2)cc1NS(=O)(=O)C1(C)CC1 [Example 367, N-(5-(7′-Fluoro-3′-methyl-2′-oxo-2′,3′-dihydrospiro[cyclobutane-1,1′-pyrrolo[2,3-c]quinolin]-8′-yl)-2-(2-(isopropylamino)ethoxy)pyridin-3-yl)-1-methylcyclopropane-l-sulfonamide] |
| – | – | 1 to 100 nM | 1 to 100 nM | CN1C(=O)C2(CCC2)c2c1cnc1cc(F)c(-c3cnc(N4CC(N(C)C)C4)c(NS(=O)(=O)C4CC4)c3)cc21 [Example 319, N-(2-(3-(Dimethylamino)azetidin-1-yl)-5-(7′-fluoro-3′-methyl-2′-oxo-2′,3′-dihydrospiro[cyclobulane-1,1′-pyrrolo[2,3-c]quinolin]-8′-yl)pyridin-3-yl)cyclopropanesulfonamide hydrochloride] |
| – | – | 0.5 to 1 nM | < 0.5 nM | Cc1ccc(S(=O)(=O)Nc2cc(-c3ccc4ncc5c(c4c3F)C3(CC3)C(=O)N5C)cnc2OCCCN(C)C)cc1 [Example 215, N-(2-(3-(Dimethylamino)propoxy)-5-(9′-fluoro-3′-methyl-2′-oxo-2′,3′-dihydrospiro[cyclopropane-1,1′-pyrrolo[2,3-c]quinolin]-8′-yl)pyridin-3-yl)-4-methylbenzenesulfonamide] |
| – | – | < 0.5 nM | 1 to 100 nM | COCCS(=O)(=O)Nc1cc(-c2ccc3ncc4c(c3c2)C2(CC2)C(=O)N4C)cnc1OCCCN(C)C [Example 83, N-(2-(3-(Dimethylamino)propoxy)-5-(3′-methyl-2′-oxo-2′,3′-dihydrospiro [cyclopropane-1,1′-pyrrolo[2,3-c]quinolin]-8′-yl)pyridin-3-yl)-2-methoxyethane-1-sulfonamide] |
| – | – | 0.5 to 1 nM | < 0.5 nM | CN1C(=O)C2(CCC2)c2c1cnc1ccc(-c3cnc(OCCCN4CCCCC4)c(NS(=O)(=O)N4CCNCC4)c3)cc21 [Example 202, N-(5-(3′-Methyl-2′-oxo-2′,3′-dihydrospiro[cyclobutane-1,1′-pyrrolo[2,3-c]quinolin]-8′-yl)-2-(3-(piperidin-1-yl)propoxy)pyridin-3-yl)piperazine-1-sulfonamide] |
| – | – | 1 to 100 nM | 1 to 100 nM | CN1C(=O)C2(CCC2)c2c1cnc1ccc(-c3cnc(OCCCN4CCCC(O)C4)c(NS(C)(=O)=O)c3)cc21 (stereo not shown) [Example 270, N-(2-(3-(3-Hydroxypiperidin-1-yl)propoxy)-5-(3′-methyl-2′-oxo-2′,3′-dihydrospiro[cyclobutane-1,1′-pyrrolo[2,3-c]quinolin]-8′-yl)pyridin-3-yl)methanesulfonamide] |
